These are literature values, as cited in patent US11998629B2, “Method for dyeing keratinous material, comprising the use of an organosilicon compound, an effect pigment and a film-forming polymer” (Henkel AG & Co. KGaA, priority 2019, dated 2024).

For the data set the following is noted: 25° C.

`Nc1cc(S(=O)(=O)[O-])cc2cc(S(=O)(=O)[O-])c(N=Nc3ccccc3)c(O)c12.[Na+].[Na+]` [Acid Red 33, disodium salt of 5-amino-4-hydroxy-3-(phenylazo)-naphthalene-2,7-disulphonate]: the solubility in water was 2.5 mg/mL.

As for “mixture of the sodium salts of mono- and disulfonic acids of 2-(2-quinolyl)-1H-indene-1,3(2H)-dione [Acid Yellow 3]”, the solubility in water is 20 mg/mL.

On to `CCN(Cc1cccc(S(=O)(=O)[O-])c1)c1ccc(C(=C2C=CC(=[N+](CC)Cc3cccc(S(=O)(=O)[O-])c3)C=C2)c2ccccc2S(=O)(=O)[O-])cc1.[Na+].[Na+]` [Acid Blue 9], for which the water solubility result was “greater than 20 % by weight”.

Take `O=S(=O)([O-])c1ccc(N=Nc2c(O)ccc3ccccc23)cc1.[Na+]` [Acid Orange 7, sodium salt of 4-[(2-hydroxy-1-naphthyl)azo]benzenesulfonate]: the solubility in water result was “more than 7 g/L”.

With `O=C([O-])C1=NN(c2ccc(S(=O)(=O)[O-])cc2)C(=O)C1N=Nc1ccc(S(=O)(=O)[O-])cc1.[Na+].[Na+].[Na+]` (stereo not drawn) [Acid Yellow 23, trisodium salt of 4,5-dihydro-5-oxo-1-(4-sulfophenyl)-4-((4-sulfophenyl)azo)-1H-pyrazole-3-carboxylic acid], the “solubility in water (in words)” value is on record as “readily soluble”.

Turning to `O=C([O-])c1c(Cl)c(Cl)c(Cl)c(Cl)c1-c1c2c(Br)cc(=O)c(Br)c-2oc2c(Br)c(O)cc(Br)c12.O=C([O-])c1c(Cl)c(Cl)c(Cl)c(Cl)c1-c1c2c(Br)cc(=O)c(Br)c-2oc2c(Br)c(O)cc(Br)c12.[Na+].[Na+]` [Acid Red 92, disodium salt of 3,4,5,6-tetrachloro-2-(1,4,5,8-tetrabromo-6-hydroxy-3-oxoxanthen-9-yl)benzoic acid], the solubility in water result is on record as “greater than 10 g/L”.
